Assay results taken from ChEMBL document CHEMBL2074247, “Induction of P-glycoprotein expression by HIV protease inhibitors in cell culture” (AIDS, 2000).

biological target: ATP-dependent translocase ABCB1 (Homo sapiens, UniProt P08183); test: TP_TRANSPORTER: Western blot, LS-180V; type: functional, cell-based
Sequence (P08183 whole entry): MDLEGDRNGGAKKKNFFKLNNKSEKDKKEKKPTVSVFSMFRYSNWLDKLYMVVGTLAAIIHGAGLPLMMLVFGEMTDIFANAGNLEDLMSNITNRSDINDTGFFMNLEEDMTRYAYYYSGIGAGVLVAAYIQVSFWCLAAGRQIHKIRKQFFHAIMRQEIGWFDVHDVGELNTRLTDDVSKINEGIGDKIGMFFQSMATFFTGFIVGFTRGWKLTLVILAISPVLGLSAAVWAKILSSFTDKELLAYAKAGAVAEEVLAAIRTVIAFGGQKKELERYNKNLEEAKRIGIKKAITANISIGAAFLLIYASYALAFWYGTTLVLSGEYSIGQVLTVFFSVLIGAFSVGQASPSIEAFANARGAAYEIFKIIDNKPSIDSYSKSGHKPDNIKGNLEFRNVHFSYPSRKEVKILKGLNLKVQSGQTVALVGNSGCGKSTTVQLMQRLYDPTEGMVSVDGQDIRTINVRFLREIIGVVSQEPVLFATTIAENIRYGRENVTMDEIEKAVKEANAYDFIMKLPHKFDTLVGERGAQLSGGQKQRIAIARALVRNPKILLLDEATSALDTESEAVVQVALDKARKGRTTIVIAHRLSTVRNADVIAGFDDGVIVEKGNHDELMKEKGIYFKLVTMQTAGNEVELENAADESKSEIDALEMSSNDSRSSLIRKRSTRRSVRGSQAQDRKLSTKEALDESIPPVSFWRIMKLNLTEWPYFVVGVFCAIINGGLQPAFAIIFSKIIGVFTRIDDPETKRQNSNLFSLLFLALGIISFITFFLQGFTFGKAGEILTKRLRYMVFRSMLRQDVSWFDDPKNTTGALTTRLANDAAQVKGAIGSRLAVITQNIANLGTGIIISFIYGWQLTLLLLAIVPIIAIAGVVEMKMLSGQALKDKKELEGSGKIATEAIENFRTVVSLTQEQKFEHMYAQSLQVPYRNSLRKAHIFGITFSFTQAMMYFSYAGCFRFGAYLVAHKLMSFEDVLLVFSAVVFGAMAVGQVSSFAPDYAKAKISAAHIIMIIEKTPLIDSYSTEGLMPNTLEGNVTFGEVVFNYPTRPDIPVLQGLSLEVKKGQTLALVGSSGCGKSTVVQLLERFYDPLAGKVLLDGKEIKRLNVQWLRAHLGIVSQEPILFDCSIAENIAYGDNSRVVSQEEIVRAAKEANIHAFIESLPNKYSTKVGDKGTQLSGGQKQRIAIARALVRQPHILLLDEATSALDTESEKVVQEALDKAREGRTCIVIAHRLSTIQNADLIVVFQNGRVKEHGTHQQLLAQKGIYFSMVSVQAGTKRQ

Row | SMILES | Activity
1 | CC(C)CN(C[C@@H](O)[C@H](Cc1ccccc1)NC(=O)O[C@H]1CCOC1)S(=O)(=O)c1ccc(N)cc1 [AMPRENAVIR] | inducer [+]
2 | CC(C)(C)NC(=O)[C@@H]1CN(Cc2cccnc2)CCN1C[C@@H](O)C[C@@H](Cc1ccccc1)C(=O)N[C@H]1c2ccccc2C[C@H]1O.O [INDINAVIR] | inducer [+]
3 | COc1ccc(CCN(C)CCCC(C#N)(c2ccc(OC)c(OC)c2)C(C)C)cc1OC (stereo not given) [VERAPAMIL] | inducer [+]

Next, values leading:

Row | Activity | SMILES
4 | inducer [+] | Cc1c(O)cccc1C(=O)N[C@@H](CSc1ccccc1)[C@H](O)CN1C[C@H]2CCCC[C@H]2C[C@H]1C(=O)NC(C)(C)C [NELFINAVIR]
5 | inducer [+] | CC(C)(C)NC(=O)[C@@H]1C[C@@H]2CCCC[C@@H]2CN1C[C@@H](O)[C@H](Cc1ccccc1)NC(=O)[C@H](CC(N)=O)NC(=O)c1ccc2ccccc2n1 [SAQUINAVIR]
